Assay results as given in publication PMC9525273 (Nature Communications, 2022).
Where “and” joins values, the source holds several entries; their conditions need not be identical. Equal values may be shown once. Entries after “also recorded” stand apart in the source; their conditions may differ. Read-outs that look alike come from different tables or passages of the source.

Assays:
Format in all cases: cell-based, Plasmodium falciparum
Dd2 parasites = assay: P. falciparum proliferation assay (72 h, fluorescent DNA-intercalating dye); conditions: read-out: IC50 values; Dd2 parasites; individual experiments
Experimental: (§1) For experiments with all other parasites, the effects of compounds of interest on parasite proliferation was measured in 96-well plates containing serial dilutions of the compounds in culture medium, with a fluorescent DNA-intercalating dye used to detect surviving parasites. The assays were initiated with erythrocytes infected with predominantly ring-stage parasites, and the starting parasitaemia and haematocrit were both 1%.

[1] = system: Dd2-PfATP4^T418N,P990R parasites; assay: as above; conditions: Dd2-PfATP4T418N,P990R parasites; individual experiments; read-out: IC50 values
Experimental: as §1

Dd2-Polδ parasites = assay: as above
Experimental: as §1

[2] = system: Dd2-Polδ-PfATP4^G358S parasites; assay: as above; conditions: for IC50: Dd2-Polδ-PfATP4G358S parasites
Experimental: as §1

[3] = system: HCR1 parasites (highly cipargamin-resistant clone 1); assay: as above; conditions: Plasmodium falciparum, HCR1 parasites; individual experiments; read-out: IC50 values
Experimental: as §1

[4] = system: HCR2 parasites (highly cipargamin-resistant clone 2); assay: as above; conditions: HCR2 parasites, individual experiments, read-out: IC50 values
Experimental: as §1

NF54^WT parasites = assay: microbe, parasite or virus in culture
Experimental: (§2) For the NF54-based lines and Dd2-B2-PfATP4^G358S and its parent, assays were initiated with cultures containing predominantly ring-stage parasites with a parasitaemia of 0.3% and a haematocrit of 1%. All assays using NF54 were performed in culture media containing 10% O + human serum. The duration of the assays was 72 h and the concentration of DMSO was <0.5% (v/v). Serial dilutions of the test compounds were performed using a Tecan D300e digital dispenser, with parasite cultures added manually. Parasite survival was assessed by flow cytometry on an Intellicyt iQue3 (Essen Bioscience), with 1× SYBR Green I (Invitrogen) and 200 nM MitoTracker Deep Red FM (Invitrogen) used to stain the nucleus and the mitochondria in live parasites, respectively. The gating strategy used to quantify parasite survival, performed using FlowJo version 10 (FlowJo LLC.), is illustrated in Supplementary Fig. 9. IC50 and IC90 values were calculated by linear interpolation of the dose-response data.

NF54^CTL parasites = assay: P. falciparum proliferation assay (72 h, flow cytometry, SYBR Green I/MitoTracker)
Experimental: as §2

NF54^G358S-1 parasites = assay: as above; conditions: for FC (IC50) / FC (IC90): NF54G358S-1 compared to NF54WT
Experimental: as §2

NF54^G358S-2 parasites = assay: as above
Experimental: as §2

[5] = system: parasite lines with a G358S mutation in PfATP4; assay: P. falciparum proliferation assays, statements on all lines with the G358S mutation; conditions: G358S lines vs PfATP4 wild-type controls
Experimental: as §2, with “Two types of parasite proliferation assays were employed in this study, with both yielding highly consistent results. For” for “For”
as §1, with “1%. […] Fluorescence was measured using a FLUOstar OPTIMA plate reader (BMG LABTECH), with OPTIMA version 2.20R2 and MARS Data Analysis Software version 3.01 R2 (BMG LABTECH).” for “1%.”

[6] = Dd2-Polδ parasites, individual experiments, read-out: IC50 values
[7] = individual experiments, read-out: IC50 values
[8] = NF54WT parasites, individual experiments, read-out: IC50 values
[9] = NF54WT parasites, individual experiments, read-out: IC90 values
[10] = Plasmodium falciparum, NF54, NF54WT parasites, individual experiments, read-out: IC50 values
[11] = Plasmodium falciparum, NF54, NF54WT parasites, individual experiments, read-out: IC90 values
[12] = Plasmodium falciparum, NF54, NF54WT parasites, mean of the experiments, read-out: IC50 values, MEAN
[13] = Plasmodium falciparum, NF54, NF54WT parasites, mean of the experiments, read-out: IC90 values, MEAN
[14] = NF54CTL parasites, individual experiments, read-out: IC50 values
[15] = NF54CTL parasites, individual experiments, read-out: IC90 values
[16] = Plasmodium falciparum, NF54, NF54CTL parasites, individual experiments, read-out: IC50 values
[17] = Plasmodium falciparum, NF54, NF54CTL parasites, individual experiments, read-out: IC90 values
[18] = Plasmodium falciparum, NF54, NF54CTL parasites, mean of the experiments, read-out: IC50 values, MEAN
[19] = Plasmodium falciparum, NF54, NF54CTL parasites, mean of the experiments, read-out: IC90 values, MEAN
[20] = NF54G358S-1 parasites, individual experiments, read-out: IC50 values
[21] = NF54G358S-1 parasites, individual experiments, read-out: IC90 values
[22] = NF54G358S-2 parasites, individual experiments, read-out: IC50 values
[23] = NF54G358S-2 parasites, individual experiments, read-out: IC90 values

SMILES | IC50 (Dd2-Polδ parasites; [6]) | IC50 [2, 7] | IC50 (NF54^WT parasites; [8]) | IC90 (NF54^WT parasites; [9]) | FC (IC50) (NF54^WT parasites; NF54WT, reference line) [fold] | FC (IC90) (NF54^WT parasites; NF54WT, reference line) [fold] | IC50 (NF54^WT parasites; [10]) [nM] | IC90 (NF54^WT parasites; [11]) [nM] | IC50 (NF54^WT parasites; [12]) [nM] | IC90 (NF54^WT parasites; [13]) [nM] | FC (IC50) (NF54^CTL parasites; NF54CTL compared to NF54WT) [fold] | FC (IC90) (NF54^CTL parasites; NF54CTL compared to NF54WT) [fold] | IC50 (NF54^CTL parasites; [14]) | IC90 (NF54^CTL parasites; [15]) | IC50 (NF54^CTL parasites; [16]) [nM] | IC90 (NF54^CTL parasites; [17]) [nM] | IC50 (NF54^CTL parasites; [18]) [nM] | IC90 (NF54^CTL parasites; [19]) [nM] | FC (IC50) (NF54^G358S-1 parasites) [fold] | effect of the G358S mutation in PfATP4 on parasite susceptibility [5] | also measured
CCN(CC)CCCC(C)Nc1ccnc2cc(Cl)ccc12 (stereo not drawn) [Chloroquine] | 172 nM and 316 nM | 161 nM and 262 nM and 227 nM | – | – | – | – | – | – | – | – | – | – | – | – | – | – | – | – | – | – | IC50 (Dd2 parasites): 92 nM and 187 nM; IC50 [1]: 165 nM; IC50 (Dd2-Polδ parasites; Plasmodium falciparum, DD2, Dd2-Polδ parasites, mean of the experiments, read-out: IC50 values, MEAN): 185 nM; IC50 (Dd2-Polδ parasites; Plasmodium falciparum, DD2, SET-2, read-out: Mean IC50 value ± SEM for growth inhibition, Dd2-Polδ, Supplementary Table 1, Set 2): 185 nM; IC50 [3]: 92 nM; IC50 [4]: 229 nM; IC50 ([4]; Plasmodium falciparum): 159 nM
Clc1ccc2c(N3CCN(CCCN4CCN(c5ccnc6cc(Cl)ccc56)CC4)CC3)ccnc2c1 [Piperaquine] | – | – | 22 nM and 14.7 nM and 19.4 nM | 29.8 nM and 27.5 nM and 28.8 nM | 1.0 | 1.0 | 22.7 | 30 | 19.7 | 29 | 0.9 | 1.2 | 20.9 nM and 14.5 nM and 11.8 nM | 37.3 nM and 28.1 nM and 26.3 nM | 21.9 | 45.9 | 17.3 | 34.4 | 0.9 | no effect | FC (IC90) (NF54^G358S-1 parasites): 1.1 fold; IC50 (NF54^G358S-1 parasites; [20]): 22.2 nM and 14.8 nM and 12.9 nM; IC90 (NF54^G358S-1 parasites; [21]): 43.7 nM and 27.9 nM and 26.4 nM; IC50 (NF54^G358S-1 parasites; Plasmodium falciparum, NF54, NF54G358S-1 parasites, individual experiments, read-out: IC50 values): 20.8 nM; IC90 (NF54^G358S-1 parasites; Plasmodium falciparum, NF54, NF54G358S-1 parasites, individual experiments, read-out: IC90 values): 34.2 nM; IC50 (NF54^G358S-1 parasites; Plasmodium falciparum, NF54, NF54G358S-1 parasites, mean of the experiments, read-out: IC50 values, MEAN): 17.7 nM; IC90 (NF54^G358S-1 parasites; Plasmodium falciparum, NF54, NF54G358S-1 parasites, mean of the experiments, read-out: IC90 values, MEAN): 33 nM; FC (IC50) (NF54^G358S-2 parasites; NF54G358S-2 compared to NF54WT): 0.9 fold; FC (IC90) (NF54^G358S-2 parasites; NF54G358S-2 compared to NF54WT): 1.1 fold; IC50 (NF54^G358S-2 parasites; [22]): 24 nM and 13.5 nM and 13.3 nM; IC90 (NF54^G358S-2 parasites; [23]): 48.2 nM and 27.4 nM and 26.7 nM; IC50 (NF54^G358S-2 parasites; Plasmodium falciparum, NF54, NF54G358S-2 parasites, individual experiments, read-out: IC50 values): 21.3 nM; IC90 (NF54^G358S-2 parasites; Plasmodium falciparum, NF54, NF54G358S-2 parasites, individual experiments, read-out: IC90 values): 30.8 nM; IC50 (NF54^G358S-2 parasites; Plasmodium falciparum, NF54, NF54G358S-2 parasites, mean of the experiments, read-out: IC50 values, MEAN): 18 nM; IC90 (NF54^G358S-2 parasites; Plasmodium falciparum, NF54, NF54G358S-2 parasites, mean of the experiments, read-out: IC90 values, MEAN): 33.3 nM
CCOC(=O)C1=CN(C)C=C(C(=O)OCC)C1c1cc(Br)c(OCC)c(OC)c1 [MMV006656] | 435 nM and 243 nM and 394 nM and 305 nM | 1560 nM and 1990 nM and 1300 nM and 2350 nM | – | – | – | – | – | – | – | – | – | – | – | – | – | – | – | – | – | – | IC50 (Dd2-Polδ parasites; Dd2-Polδ parasites, mean of the experiments, read-out: IC50 values, MEAN): 344 nM; IC50 ([2]; mean of the experiments, read-out: IC50 values, MEAN): 1800 nM; IC50 fold higher than that of Dd2-Polδ parent ([2]; Dd2-Polδ-PfATP4G358S vs Dd2-Polδ, mean ± SEM): 5.7 ± 1.3 fold
CCNCc1cc(Nc2ccnc3cc(Cl)ccc23)ccc1O [Monodesethyl‐amodiaquine] | – | – | 10.5 nM | 7.38 nM and 7.32 nM and 7.45 nM and 14.6 nM | 1.0 | 1.0 | – | – | – | – | 1.0 | 1.5 | 6.5 nM and 6.8 nM and 7.4 nM and 7.2 nM | – | – | – | – | – | 1.1 | no effect | IC50 (NF54^WT parasites; NF54WT parasites, mean of the experiments, read-out: IC50 values, MEAN): 6.9 nM; IC90 (NF54^WT parasites; NF54WT parasites, mean of the experiments, read-out: IC90 values, MEAN): 9.2 nM; FC (Mean IC90/IC50) (NF54^WT parasites; NF54WT, reference line): 1.0 fold; IC50 (NF54^WT parasites; read-out: IC50 values): 5.7 nM; FC (Mean IC90/IC50) (NF54^CTL parasites; NF54CTL compared to NF54WT): 1.5 fold; IC50 (NF54^CTL parasites; NF54CTL parasites, mean of the experiments, read-out: IC50 values, MEAN): 7 nM; IC50 (NF54^G358S-1 parasites; NF54G358S-1, 10% human serum, read-out: IC50 ± SEM): 7.6 ± 0.8 nM; FC (IC90) (NF54^G358S-1 parasites): 1.4 fold; IC50 (NF54^G358S-1 parasites; [20]): 5.6 nM and 7.6 nM and 8.1 nM and 9.2 nM; IC90 (NF54^G358S-1 parasites; [21]): 7.37 nM and 14 nM (2×) and 14.3 nM; IC50 (NF54^G358S-1 parasites; NF54G358S-1 parasites, mean of the experiments, read-out: IC50 values, MEAN): 7.6 nM; IC90 (NF54^G358S-1 parasites; NF54G358S-1 parasites, mean of the experiments, read-out: IC90 values, MEAN): 12.4 nM; FC (IC50) (NF54^G358S-2 parasites; NF54G358S-2 compared to NF54WT): 1.0 fold; FC (IC90) (NF54^G358S-2 parasites; NF54G358S-2 compared to NF54WT): 1.3 fold; FC (Mean IC90/IC50) (NF54^G358S-2 parasites; NF54G358S-2 compared to NF54WT): 1.3 fold; IC50 (NF54^G358S-2 parasites; [22]): 5.9 nM and 7.4 nM and 7 nM; IC90 (NF54^G358S-2 parasites; [23]): 7.97 nM and 13.8 nM and 13.5 nM; IC50 (NF54^G358S-2 parasites; NF54G358S-2 parasites, mean of the experiments, read-out: IC50 values, MEAN): 6.8 nM; IC90 (NF54^G358S-2 parasites; NF54G358S-2 parasites, mean of the experiments, read-out: IC90 values, MEAN): 12.2 nM
CC1(C)c2nc(-c3ccc(F)cc3)c(Nc3ccc(F)cc3)n2CCN1C(=O)CN [KAF156] | – | – | 6.9 nM and 7.1 nM and 5.4 nM | 14.7 nM and 12.9 nM and 12.4 nM and 9.88 nM and 13.6 nM and 9.68 nM | 1.0 | 1.0 | 7.2 | 17.6 | 6.7 | 13 | 0.7 | 0.8 | 5.1 nM and 4.4 nM and 4.5 nM and 5.9 nM and 4.7 nM | 13.8 nM and 9.19 nM and 9.36 nM and 8.54 nM and 9.44 nM and 9.66 nM | 5.5 | 12.6 | 4.9 | 10.4 | – | no impact; also recorded: no effect | IC50 (NF54^WT parasites; Plasmodium falciparum, NF54, NF54WT, 10% human serum, read-out: IC50 ± SEM): 6.7 ± 0.2 nM
